CC1=C[C@H](O)CC(C)(C)[C@H]1/C=C/C(C)=C/C=C/C(C)=C/C=C/C=C(C)/C=C/C=C(C)/C=C/C1=C(C)C[C@@H](O)CC1(C)C
solubility (mole fraction)
Conditions | 278.15 K | 283.15 K | 288.15 K | 293.15 K | 298.15 K | 303.15 K | 308.15 K | 313.15 K | 318.15 K | 323.15 K
in ethanol | 1.75e-05 | 1.96e-05 | 2.27e-05 | 2.63e-05 | 3.16e-05 | 3.75e-05 | 4.48e-05 | 5.32e-05 | 6.42e-05 | 7.72e-05
in ethylene glycol | 2.68e-07 | 3.03e-07 | 3.48e-07 | 3.89e-07 | 4.43e-07 | 5.17e-07 | 6.12e-07 | 7.13e-07 | 8.45e-07 | 9.61e-07
in isopropanol | 9.74e-07 | 1.03e-06 | 1.1e-06 | 1.18e-06 | 1.27e-06 | 1.39e-06 | 1.51e-06 | 1.67e-06 | 1.86e-06 | 2.13e-06
in methanol | 2.31e-05 | 2.84e-05 | 3.77e-05 | 4.91e-05 | 6.72e-05 | 8.41e-05 | 0.000107 | 0.000134 | 0.000166 | 0.000207

— BigSolDB 2.1
